Test results from ChEMBL document CHEMBL5113372, “Paradigm shift of "classical" HDAC inhibitors to "hybrid" HDAC inhibitors in therapeutic interventions” (Eur J Med Chem, 2021).

Experiments:
[1] = tested on: SK-BR-3; assay: Cytotoxicity against human SK-BR-3 cells assessed as cell growth inhibition; format: functional, cell-based
[2] = tested on: A549; assay: Cytotoxicity against human A549 cells assessed as cell growth inhibition; format: functional, cell-based
[3] = tested on: NCI-H1975; assay: Cytotoxicity against human NCI-H1975 cells assessed as cell growth inhibition; format: functional, cell-based
[4] = target: Epidermal growth factor receptor (Homo sapiens, UniProt P00533); assay: Inhibition of EGFR (unknown origin)
[5] = target: T1, Histone deacetylase 1 (Homo sapiens, UniProt Q13547); assay: Inhibition of HDAC1 (unknown origin)
[6] = tested on: A-431; assay: Cytotoxicity against human A-431 cells assessed as cell growth inhibition; format: functional, cell-based
[7] = target: T2, Protein deacetylase HDAC6 (Homo sapiens, UniProt Q9UBN7); assay: Inhibition of HDAC6 (unknown origin)
T2 sequence (Q9UBN7 whole entry): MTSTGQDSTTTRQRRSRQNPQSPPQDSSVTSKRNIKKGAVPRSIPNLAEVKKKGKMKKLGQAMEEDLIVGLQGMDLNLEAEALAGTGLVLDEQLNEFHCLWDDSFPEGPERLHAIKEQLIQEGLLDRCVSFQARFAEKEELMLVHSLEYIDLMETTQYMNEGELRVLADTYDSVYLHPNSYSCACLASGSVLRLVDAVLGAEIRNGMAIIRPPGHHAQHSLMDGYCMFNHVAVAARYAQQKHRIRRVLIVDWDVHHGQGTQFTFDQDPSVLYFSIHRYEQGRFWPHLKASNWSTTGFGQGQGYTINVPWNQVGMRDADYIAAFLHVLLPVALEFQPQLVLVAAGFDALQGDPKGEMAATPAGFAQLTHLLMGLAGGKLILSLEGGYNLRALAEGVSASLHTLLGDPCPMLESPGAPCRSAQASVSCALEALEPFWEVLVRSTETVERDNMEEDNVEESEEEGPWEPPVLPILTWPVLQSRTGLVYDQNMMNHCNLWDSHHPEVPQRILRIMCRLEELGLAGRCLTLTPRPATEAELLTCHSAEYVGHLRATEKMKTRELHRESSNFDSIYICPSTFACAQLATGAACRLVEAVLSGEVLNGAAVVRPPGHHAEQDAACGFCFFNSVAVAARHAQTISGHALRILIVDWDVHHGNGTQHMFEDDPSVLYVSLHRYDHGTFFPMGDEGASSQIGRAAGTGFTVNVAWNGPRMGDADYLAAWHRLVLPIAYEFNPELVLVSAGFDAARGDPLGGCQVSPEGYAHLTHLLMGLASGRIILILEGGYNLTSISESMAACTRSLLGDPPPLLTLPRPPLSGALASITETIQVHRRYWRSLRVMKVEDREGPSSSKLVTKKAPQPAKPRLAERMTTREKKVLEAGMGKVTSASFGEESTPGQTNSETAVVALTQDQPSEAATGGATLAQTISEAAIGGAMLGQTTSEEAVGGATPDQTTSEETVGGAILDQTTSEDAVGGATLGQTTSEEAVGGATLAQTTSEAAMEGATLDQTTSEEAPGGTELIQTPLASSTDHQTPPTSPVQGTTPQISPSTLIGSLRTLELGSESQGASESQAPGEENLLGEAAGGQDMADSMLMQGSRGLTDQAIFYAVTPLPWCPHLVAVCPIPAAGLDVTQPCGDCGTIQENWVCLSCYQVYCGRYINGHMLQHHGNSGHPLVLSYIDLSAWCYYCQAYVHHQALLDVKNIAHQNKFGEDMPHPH

[8] = tested on: BT-474; assay: Cytotoxicity against human BT-474 cells assessed as cell growth inhibition; format: functional, cell-based
[9] = tested on: A549; assay: Antitumor activity against human A549 cells xenografted in BALB/c mouse assessed as tumor growth inhibition measured every 2 days for 2 to 3 weeks by caliper method relative to control; format: functional; settings: time 2 day
[10] = tested on: A549; assay: Antiproliferative activity against human A549 cells assessed as inhibition of cell viability treated for 12 to 48 hrs by MTT assay; format: functional, cell-based
[11] = target: T1, Histone deacetylase 1; assay: Inhibition of recombinant human HDAC1 using Boc-L-Lys (Ac)-AMC as substrate incubated for 35 mins by microplate reader analysis
[12] = target: T2, Protein deacetylase HDAC6; assay: Inhibition of His-tagged recombinant human HDAC6 expressed in baculovirus infected insect cells using Boc-Lys(Ac)-AMC as substrate preincubated for 5 mins followed by substrate addition measured after 30 mins by fluorescence based assay
[13] = tested on: PC-3; assay: Inhibition of colony formation in human PC-3 cells incubated for 10 days by crystal violet method; format: functional, cell-based; settings: PC-3, 240 h
[14] = target: T1, Histone deacetylase 1; assay: Inhibition of His-tagged recombinant human HDAC1 (482 residues) expressed in baculovirus infected insect cells using FLUOR DE LYS-SIRT1 as substrate preincubated for 5 mins followed by substrate addition measured after 30 mins by fluorescence based assay
[15] = tested on: DU-145; assay: Inhibition of colony formation in human DU-145 cells incubated for 10 days by crystal violet method; format: functional, cell-based; settings: DU-145, 240 h
[16] = tested on: A549; assay: Anti-proliferative activity against human A549 cells assessed as cell growth inhibition by MTT assay; format: functional, cell-based
[17] = tested on: LNCaP; assay: Antiproliferative activity against human LNCaP cells expressing androgen receptor assessed as inhibition of cell viability; format: functional, cell-based
[18] = tested on: DU-145; assay: Antiproliferative activity against human DU-145 assessed as inhibition of cell viability incubated for 72 hrs by MTT/MTS assay; format: functional, cell-based; settings: DU-145, 72 h
[19] = target: Androgen receptor (Rattus norvegicus, UniProt P15207); assay: Displacement of [3H]-mibolerone from rat androgen receptor incubated for 4 hrs by radioligand binding assay
[20] = target: T2, Protein deacetylase HDAC6; assay: Inhibition of recombinant human HDAC6 expressed in baculovirus infected Hi-5 insect cells using Boc-Lys (epsilon-acetyl)-AMC as substrate incubated for 3 to 24 hrs by fluorescence based assay
[21] = tested on: HepG2; assay: Antiproliferative activity against human HepG2 cells assessed as cell growth inhibition incubated for 72 hrs by CCK-8 assay; format: functional, cell-based; settings: HepG2, 72 h
[22] = tested on: PC-3; assay: Antiproliferative activity against human PC-3 cells assessed as cell growth inhibition incubated for 72 hrs by CCK-8 assay; format: functional, cell-based; settings: PC-3, 72 h
[23] = tested on: HeLa; assay: Antiproliferative activity against human HeLa cells assessed as cell growth inhibition incubated for 72 hrs by CCK-8 assay; format: functional, cell-based
[24] = target: Histone deacetylase 2 (Homo sapiens, UniProt Q92769); assay: Inhibition of recombinant human HDAC2 using HDAC substrate incubated for 30 mins by fluorescence based microplate reader analysis
[25] = tested on: A549; assay: Antiproliferative activity against human A549 cells assessed as cell growth inhibition incubated for 72 hrs by CCK-8 assay; format: functional, cell-based; settings: A549, 72 h
[26] = target: T2, Protein deacetylase HDAC6; assay: Inhibition of recombinant human HDAC6 using HDAC substrate incubated for 30 mins by fluorescence based microplate reader analysis
[27] = target: T1, Histone deacetylase 1; assay: Inhibition of recombinant human HDAC1 using HDAC substrate incubated for 30 mins by fluorescence based microplate reader analysis
[28] = tested on: MCF7; assay: Antiproliferative activity against human MCF7 cells assessed as cell growth inhibition incubated for 72 hrs by CCK-8 assay; format: functional, cell-based; settings: MCF7, 72 h
[29] = target: Lysine-specific histone demethylase 1A (Homo sapiens, UniProt O60341); assay: Inhibition of LSD1 (unknown origin) using diMeK4H31-21 as substrate preincubated for 5 mins followed by substrate addition measured for 5 mins by absorbance based assay
[30] = target: T1, Histone deacetylase 1; assay: Inhibition of HDAC1 (unknown origin) using RHKK(Ac) as substrate incubated for 30 mins by fluorescence based assay
[31] = tested on: SK-MEL-5; assay: Antitumor activity against human SK-MEL-5 cells xenografted in BALB/c mouse assessed as reduction in tumor volume at 30 mg/kg, ip qd measured after 4 weeks by caliper method relative to control; format: functional; set-up: scale not given: the % may be the effect or the level left
[32] = Antiproliferative activity against human WM983B cells assessed as cell growth inhibition; format: functional, cell-based
[33] = tested on: Jurkat; assay: Cytotoxicity against human Jurkat cells assessed as cell growth inhibition by trypan blue dye based light microscopy; format: functional
[34] = target: T1, Histone deacetylase 1; assay: Inhibition of recombinant human HDAC1 using fluorogenic substrate measured after 60 mins by fluorescence based assay
[35] = tested on: MCF7; assay: Cytotoxicity against human MCF7 cells assessed as cell growth inhibition by trypan blue dye based light microscopy; format: functional
[36] = target: Vitamin D3 receptor (Homo sapiens, UniProt P11473); assay: Displacement of fluorescent tracer from VDR (unknown origin) by fluorescence polarisation competition assay
[37] = target: T1, Histone deacetylase 1; assay: Inhibition of HDAC1 (unknown origin) using Boc-Lys(Ac)-7-amino-4-methylcoumarin (BocLys(Ac)-AMC) as substrate incubated for 30 mins by fluorescence based assay
[38] = target: T2, Protein deacetylase HDAC6; assay: Inhibition of HDAC6 (unknown origin) using Boc-Lys(Ac)-7-amino-4-methylcoumarin (BocLys(Ac)-AMC) as substrate incubated for 30 mins by fluorescence based assay
[39] = target: Histone deacetylase; assay: Inhibition of pan-HDAC (unknown origin); format: protein assay, Homo sapiens
[40] = tested on: DU-145; assay: Anti-proliferative activity against human DU-145 cells assessed as cell growth inhibition measured after 72 hrs by SRB assay; format: functional, cell-based; settings: DU-145, 72 h
[41] = target: T1, Histone deacetylase 1; assay: Inhibition of recombinant human HDAC1 using Boc-Lys (Ac)-AMC as substrate incubated for 60 mins by fluorescence based assay
[42] = tested on: SMMC-7721; assay: cells; format: functional, cell-based; settings: Homo sapiens, SMMC-7721, 48 h

T1 sequence (Q13547 whole entry): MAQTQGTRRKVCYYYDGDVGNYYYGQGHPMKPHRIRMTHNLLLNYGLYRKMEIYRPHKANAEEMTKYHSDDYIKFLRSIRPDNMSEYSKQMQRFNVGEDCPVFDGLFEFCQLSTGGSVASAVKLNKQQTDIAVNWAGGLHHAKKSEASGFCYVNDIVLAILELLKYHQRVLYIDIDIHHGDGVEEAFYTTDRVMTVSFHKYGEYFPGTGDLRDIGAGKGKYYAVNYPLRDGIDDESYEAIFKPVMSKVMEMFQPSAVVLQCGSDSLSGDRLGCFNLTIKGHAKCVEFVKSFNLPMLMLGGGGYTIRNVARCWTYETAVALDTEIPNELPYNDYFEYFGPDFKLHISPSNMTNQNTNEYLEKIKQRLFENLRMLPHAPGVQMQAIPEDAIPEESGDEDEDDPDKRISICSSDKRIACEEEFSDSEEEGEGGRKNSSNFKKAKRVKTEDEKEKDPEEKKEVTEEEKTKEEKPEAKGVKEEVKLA
Chain of Vitamin D3 receptor (P11473 whole entry): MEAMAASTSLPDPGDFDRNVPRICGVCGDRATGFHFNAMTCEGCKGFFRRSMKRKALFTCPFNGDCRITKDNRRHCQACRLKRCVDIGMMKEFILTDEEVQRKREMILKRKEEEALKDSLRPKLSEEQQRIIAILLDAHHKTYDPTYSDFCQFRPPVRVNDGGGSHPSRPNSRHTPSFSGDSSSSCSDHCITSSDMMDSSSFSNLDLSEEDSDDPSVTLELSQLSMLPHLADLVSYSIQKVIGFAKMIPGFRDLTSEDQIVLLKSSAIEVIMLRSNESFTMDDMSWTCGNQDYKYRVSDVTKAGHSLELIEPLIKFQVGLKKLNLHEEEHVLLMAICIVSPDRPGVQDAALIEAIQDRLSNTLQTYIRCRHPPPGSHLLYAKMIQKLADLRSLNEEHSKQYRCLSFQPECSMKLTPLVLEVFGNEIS
Chain of Androgen receptor (P15207 whole entry S389L): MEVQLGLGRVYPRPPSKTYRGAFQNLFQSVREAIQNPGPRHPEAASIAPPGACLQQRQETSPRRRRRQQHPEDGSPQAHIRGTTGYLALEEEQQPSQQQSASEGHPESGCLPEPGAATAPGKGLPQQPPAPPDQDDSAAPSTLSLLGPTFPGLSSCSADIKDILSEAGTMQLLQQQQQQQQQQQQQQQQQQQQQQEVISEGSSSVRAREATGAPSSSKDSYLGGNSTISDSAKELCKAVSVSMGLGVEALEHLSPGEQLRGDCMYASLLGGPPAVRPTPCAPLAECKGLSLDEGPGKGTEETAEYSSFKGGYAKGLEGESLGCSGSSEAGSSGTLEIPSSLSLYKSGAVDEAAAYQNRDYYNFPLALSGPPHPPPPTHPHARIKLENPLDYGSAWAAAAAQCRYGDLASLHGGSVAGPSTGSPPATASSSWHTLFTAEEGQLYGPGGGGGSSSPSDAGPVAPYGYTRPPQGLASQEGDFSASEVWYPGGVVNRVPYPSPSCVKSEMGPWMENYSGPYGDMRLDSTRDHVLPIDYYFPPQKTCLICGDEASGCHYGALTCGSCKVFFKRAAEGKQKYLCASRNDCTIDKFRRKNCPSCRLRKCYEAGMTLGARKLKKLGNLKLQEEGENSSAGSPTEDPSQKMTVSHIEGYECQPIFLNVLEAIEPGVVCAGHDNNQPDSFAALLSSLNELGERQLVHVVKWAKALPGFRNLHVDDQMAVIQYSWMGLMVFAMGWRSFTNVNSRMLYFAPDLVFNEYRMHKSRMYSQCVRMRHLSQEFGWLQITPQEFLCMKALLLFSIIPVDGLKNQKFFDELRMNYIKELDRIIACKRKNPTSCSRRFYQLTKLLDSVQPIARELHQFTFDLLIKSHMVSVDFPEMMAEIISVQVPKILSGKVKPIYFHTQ
Chain of Epidermal growth factor receptor (P00533 whole entry): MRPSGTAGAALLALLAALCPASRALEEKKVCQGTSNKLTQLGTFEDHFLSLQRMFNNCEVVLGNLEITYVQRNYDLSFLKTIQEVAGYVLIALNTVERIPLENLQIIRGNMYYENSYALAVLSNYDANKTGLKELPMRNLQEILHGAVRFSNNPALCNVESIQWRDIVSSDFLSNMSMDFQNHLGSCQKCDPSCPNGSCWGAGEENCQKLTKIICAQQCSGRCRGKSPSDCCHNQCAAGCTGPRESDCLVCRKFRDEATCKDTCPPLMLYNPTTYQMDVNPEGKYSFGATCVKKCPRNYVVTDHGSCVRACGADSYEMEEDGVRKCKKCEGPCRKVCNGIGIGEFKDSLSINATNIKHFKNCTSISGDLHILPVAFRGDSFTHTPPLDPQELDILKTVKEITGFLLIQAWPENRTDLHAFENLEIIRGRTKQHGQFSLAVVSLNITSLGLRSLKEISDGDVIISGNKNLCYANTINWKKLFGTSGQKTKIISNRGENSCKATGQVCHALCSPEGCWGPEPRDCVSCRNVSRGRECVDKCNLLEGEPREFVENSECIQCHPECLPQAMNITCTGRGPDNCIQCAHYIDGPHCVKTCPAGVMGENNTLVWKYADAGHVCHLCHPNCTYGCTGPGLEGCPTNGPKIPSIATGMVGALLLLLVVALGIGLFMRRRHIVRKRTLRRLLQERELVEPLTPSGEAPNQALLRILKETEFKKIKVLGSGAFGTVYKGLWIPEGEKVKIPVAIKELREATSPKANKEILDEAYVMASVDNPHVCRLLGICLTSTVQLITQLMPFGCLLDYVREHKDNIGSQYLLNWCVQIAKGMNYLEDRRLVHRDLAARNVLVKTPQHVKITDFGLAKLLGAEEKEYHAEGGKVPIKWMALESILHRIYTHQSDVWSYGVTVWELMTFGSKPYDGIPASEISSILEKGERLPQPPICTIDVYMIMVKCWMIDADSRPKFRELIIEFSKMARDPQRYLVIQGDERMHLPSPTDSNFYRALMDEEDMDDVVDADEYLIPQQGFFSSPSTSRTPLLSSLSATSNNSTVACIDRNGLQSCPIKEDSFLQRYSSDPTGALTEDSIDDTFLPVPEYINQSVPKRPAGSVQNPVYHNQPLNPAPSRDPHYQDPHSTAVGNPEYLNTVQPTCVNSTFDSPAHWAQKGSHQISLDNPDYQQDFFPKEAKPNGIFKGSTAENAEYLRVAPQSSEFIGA
Chain of Histone deacetylase 2 (Q92769 whole entry): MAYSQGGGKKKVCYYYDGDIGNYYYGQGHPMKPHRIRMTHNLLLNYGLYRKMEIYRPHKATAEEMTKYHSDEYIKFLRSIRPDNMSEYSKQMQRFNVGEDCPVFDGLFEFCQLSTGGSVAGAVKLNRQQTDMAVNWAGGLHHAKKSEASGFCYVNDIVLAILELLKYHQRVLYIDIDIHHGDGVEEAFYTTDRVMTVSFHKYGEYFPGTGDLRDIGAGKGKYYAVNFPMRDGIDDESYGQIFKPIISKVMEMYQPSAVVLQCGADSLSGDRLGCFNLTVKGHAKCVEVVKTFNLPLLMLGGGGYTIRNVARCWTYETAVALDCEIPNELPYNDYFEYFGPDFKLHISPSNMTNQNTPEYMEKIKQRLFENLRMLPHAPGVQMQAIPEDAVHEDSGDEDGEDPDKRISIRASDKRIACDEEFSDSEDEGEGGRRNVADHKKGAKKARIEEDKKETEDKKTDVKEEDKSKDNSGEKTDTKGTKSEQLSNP

SMILES: O=C(CCCCCCN1CC(c2ccc3ncnc(Nc4ccc(Br)cc4F)c3c2)N=N1)NO (stereo not drawn)
- IC50 [1]: 10900 nM
- IC50 [2]: 710 nM
- IC50 [3]: 7850 nM
- IC50 [4]: 10.3 nM
- IC50 [5]: 1.1 nM
- IC50 [6]: 260 nM
- IC50 [7]: 4.3 nM
- IC50 [8]: 5130 nM

SMILES: C=C(c1ccc(C(=O)NO)cc1)c1cc2c(cc1C)C(C)(C)CCC2(C)C
- TGI [9]: 53%
- IC50 [10]: 4900 nM

SMILES: O=C(CCCCc1cn(-c2ccc(C(=O)c3c(-c4ccc(O)cc4)sc4cc(O)ccc34)cc2)nn1)NO
- IC50 [11]: 1820 nM
- IC50 [7]: 1300 nM

SMILES: O=C(CCCCCNC(=O)c1cccc2cc3ccccc3nc12)NO
- IC50 [12]: 2.2 nM
- IC50 [13]: 310 nM
- IC50 [14]: 16.6 nM
- IC50 [15]: 160 nM

SMILES: O=C(CCCCCOc1ccc(-c2nc3ccccc3c3cc(-c4ccccc4)nn23)cc1)NO
- IC50 [16]: 720 nM

SMILES: CC1(C)C(=O)N(c2ccc(C#N)c(C(F)(F)F)c2)C(=O)N1Cc1ccc(-c2cn(CCCCCCC(=O)NO)nn2)cc1
- IC50 [17]: 1100 nM
- IC50 [18]: 1000 nM
- IC50 [19]: 690 nM

SMILES: COCCOc1cc2ncnc(Nc3ccc(/C=C/C(=O)NO)cc3)c2cc1OCCOC
- IC50 [20]: 2770 nM

SMILES: C[C@H]1COc2c(N3CCN(C)CC3)c(F)cc3c(=O)c(C(=O)NCC4CN(CC(=O)NO)N=N4)cn1c23 (stereo partly drawn)
- IC50 [21]: 2300 nM
- IC50 [22]: 4900 nM
- IC50 [23]: 1100 nM
- IC50 [24]: 41 nM
- IC50 [25]: 2100 nM
- IC50 [26]: 21 nM
- IC50 [27]: 29 nM
- IC50 [28]: 300 nM

SMILES: Nc1ccccc1NC(=O)c1ccc(CCCC(=O)Nc2ccc(C3CC3N)cc2)cc1 (stereo not drawn)
- IC50 [29]: 100 nM
- IC50 [30]: 140 nM
- Activity [31]: <=61%
- IC50 [32]: 200 nM

SMILES: O=C(CCn1cc(CCn2nc3c(Br)c(Br)c(Br)c(Br)c3n2)nn1)NO
- IC50 [33]: 2870 nM
- IC50 [34]: 2200 nM
- IC50 [35]: 4260 nM

SMILES: C=C1/C(=C\C=C2/CCC[C@@]3(C)[C@@H]2CC[C@H]3[C@@H](C)/C=C(C)/C=C/C(=O)NO)C[C@H](O)C[C@@H]1O
- IC50 [36]: 87 nM

SMILES: CCC(CC)(c1ccc(OCC(=O)NO)c(C)c1)c1ccc(OCC(O)C(C)(C)C)c(C)c1 (stereo not drawn)
- IC50 [37]: 14300 nM
- IC50 [38]: 580000 nM

SMILES: CC[C@@]1(O)C(=O)OCc2c1cc1n(c2=O)Cc2cc3ccccc3nc2-1 [CAMPTOTHECIN]
- IC50 [39]: 50 nM
- IC50 [40]: 70 nM

SMILES: CC(C)=CCC/C(C)=C/CC/C(C)=C/CSc1ccccc1C(=O)NCCCCC(=O)NO
- IC50 [41]: 58 nM
- IC50 [42]: 4930 nM
